# Reference: US20090035295A1, “Screening Method, Process for Purifying of Non-Diffusible A-Beta Oligomers, Selective Antibodies Against Said Non-Diffusible a-Beta Oligomers and a Process for Manufacturing of Said Antibodies” (Abbott GmgH & Co. KG, priority 2005, published 2009)
# “Also recorded” adds a separate entry of the source. No end group written: not given here.
# Key:
# [1] = molecular target: T1, Aβ(1-42) globulomer formation (Homo sapiens, UniProt P05067); assay: Induction of Aβ(1-42) globulomer formation by fatty acids replacing SDS (SDS-PAGE); assay type: biochemical; conditions: fatty acid in place of SDS, neutral pH
# T1 construct: Aβ(1-42) synthetic peptide (Cat. No. H-1368, Bachem, Switzerland); purchased Bachem H-1368; host or cells: chemical synthesis; oligomerised in house (HFIP, DMSO, 0.2% SDS or 0.5% fatty acid, dilution)
# Protocol: Lanes: (1) control without inducing agent, (2) positive control with 0.2% SDS, (3) 0.5% lauric acid (12:0), (4) 0.5% oleic acid (18:1), (5) linoleic acid […], (6) eicosapentanoic acid (20:5), (7) docosatetranoic acid (22:4), (8) docosahexanoic acid (22:6), (9) positive control with 0.2% SDS, (10) 1% arachidonic acid. Yields of Aβ(1-42) globulomer (g, indicated with arrowheads) differ between various fatty acids;
# A solution of Aβ(1-42) globulomers was prepared as described in example 5a of WO2004/067561. Briefly, Aβ(1-42) synthetic peptide (Cat. No. H-1368, Bachem, Switzerland) was suspended in 1,1,1,3,3,3-hexafluoro-2-propanol (HFIP) at […] and incubated for complete solubilization under shaking at 37° C. for 1.5 h. HFIP was removed by evaporation in a SpeedVac and Aβ(1-42) resuspended at a concentration of 5 mM in dimethyl sulfoxide (DMSO) and 20 sec sonicated. The HFIP pretreated Aβ(1-42) was diluted in phosphate buffered solution (PBS) (20 mM NaH2PO4, 140 mM NaCl, pH 7.4) to 400 μM and 1/10 volume 2% SDS (in H2O) added (final concentration of 0.2% sodium dodecyl sulfate (SDS)).
# hippocampal neurons = assay: Binding of Aβ forms to cultured hippocampal neurons (immunofluorescence); assay type: cell-based, rat
# Protocol: (§1) Hippocampal cells from rat brain (QBM Cell Science, Canada) were cultured in 24-well plates on poly-L-lysine coated coverslips (BD Biosciences, Germany) in Neurobasal medium with B27 supplement (Invitrogen, Germany) at 37° C., 5% 002. To some cultures mitosis inhibitors (35 μg/ml uridine, 15 μg/ml 5-fluoro-2′-deoxyuridine) were added at DIV6 to prevent an overgrowing with glia. Unless otherwise stated hippocampal cells were used at DIV13-14.
# Cells were rinsed three times with 1 ml medium and fixed with 3.7% buffered formaldehdye (Accustain, Sigma, Germany). Unspecific binding sites were blocked by incubation with 10% normal goat serum in PBS (pH 7.4) for 90 min at room temperature to which 0.1% Triton X-100 was added in the case of intracellular counterstaining. […] After each antibody incubation cells were washed three times with PBS and finally mounted in ProLong antifade reagent (Molecular Probes, Germany).
# [2] = In vitro stability in PBS at different temperatures, SDS-PAGE; assay type: physicochemical
# Protocol: The sample at 0.5 mg/ml in 20 mM NaH2PO4; 140 mM NaCl; pH 7.4 was incubated at room temperature and 37° C. for 1 day and 4 days, respectively. An aliquot of 10 μl of the samples was analyzed by SDS-PAGE.
# An aliquot of 100 μl of each of the samples was analyzed by SDS-PAGE.
# long-term potentiation = assay: Long-term potentiation in rat brain slices (CA1 field potentials); assay type: cell-based
# Protocol: Slices were prepared from male Sprague-Dawley rats (7-8 weeks old). Isolated hemispheres were trimmed and then cut using a vibratome. Slices ([…]) were directly transferred to an interface recording chamber and continuously perfused at 33° C. with oxygenated artificial CSF (aCSF: 118 mM NaCl, 1.24 mM KH2PO4, 10 mM glucose, 2 mM MgSO4, 2.5 mM CaCl2, 5 mM KCl, 25.6 mM NaHCO3) at a flow rate of 1.8 ml/min. Freshly prepared slices were allowed to equilibrate for at least one hour before recording. Field potentials were obtained from stratum radiatum of CA1 using glass microelectrodes (0.8-1.2 MΩ) filled with aCSF. The Schaffer collateral was stimulated by a bipolar tungsten electrode (0.5 MO, Science Products GmbH, Germany). Constant voltage biphasic pulses (0.1 ms/phase; range 1-5 V) were applied once per minute at an intensity yielding 30% of the fEPSP maximum. LTP was induced by 2 trains of 100 Hz (1 sec/train with 10 sec intertrain intervall) using the same intensity and pulse length. […] Signals were digitized by a Power CED 1401 and analyzed using the software Signal 2.14 (Cambridge Electronic Design Ltd., Cambridge). For statistical comparison data were analyzed by 2-way repeated measures ANOVA using SAS.
# [3] = Intracranial injection in rats: in vivo binding and tissue penetration; conditions: rat
# Protocol: For electrophysiological and histological studies, male Sprague-Dawley rats were obtained from Janvier (France) at an age of about 8 weeks.
# The rats (260-430 g) were anesthetized with pentobarbital (60 mg/kg i.p.; Narcoren) and fixed in a stereotaxic apparatus according to Paxinos and Watson^36. […] A total volume of 4.3 μL was infused by a 10 μL Hamilton syringe attached to a motorized micropump (WPI, Germany) during 5 min with the cannula being left in place for additional 2 min. […] The infusion was applied via a 10 μL Hamilton syringe during 5 min with the cannula being left in place for additional 5 min.
# Therefore, rats were deeply anesthetized with Narcoren. […] Then, the rats were transcardially perfused with 10 mM PBS (pH 7.2) for 5 min, followed by 4% paraformaldehyde (PFA) in PBS. The brains were removed, postfixed overnight in 4% PFA in PBS containing 30% sucrose and transferred into 30% sucrose in PBS for cryoprotection.
# A Cy3-labeled donkey anti-mouse antibody (Jackson Laboratories) was used for fluorescence labelling for 1 h. Between the steps and at the end, sections were thoroughly washed in TBST three times for 5 min, after which they were mounted onto glass slides, air-dried and cover-slipped with Vectashield hardest mounting medium containing DAPI (Vector Laboratories) to visualize cell nuclei. All incubations were performed at room temperature. Some sections were also stained with 0.05% thioflavine S (Sigma, Germany) in 50% ethanol for 10 min, followed by two rinses of 100% ethanol for 5 min before embedding in Vectashield. Analysis of labelling was performed under a confocal fluorescence microscope (Zeiss LSM 510 Meta, Germany).
# glia = assay: Binding of Aβ(1-42) globulomer to glia in hippocampal cultures; assay type: cell-based, rat; conditions: hippocampal preparation, GFAP positive cells
# Protocol: as §1, with “DIV13-14. When Aβ-forms were added, 750 μL fresh 37° C. warm medium containing the Aβ-forms were exchanged of the total 1 ml. Incubation took place for 15 min at 37° C., 5% CO2.” for “DIV13-14.”
# Cells were rinsed three times with 1 ml medium and fixed with 3.7% buffered formaldehdye (Accustain, Sigma, Germany). Unspecific binding sites were blocked by incubation with 10% normal goat serum in PBS (pH 7.4) for 90 min at room temperature to which 0.1% Triton X-100 was added in the case of intracellular counterstaining. Primary antibodies (anti Aβ 6E10 (Signet Laboratories, USA), 1:2000; anti GFAP (Dako Cytomation, Germany), 1:2500; anti MAP2 (Chemicon International, Germany), 1:1000) and secondary antibodies (Alexa 488, 1:500; Alexa 635, 1:500; Molecular Probes, Germany) were subsequently incubated for 2 h at room temperature in 10% normal goat serum in PBS (pH 7.4). […]
# APP/Lo mice = assay: Novel object recognition task after active immunization of APP/Lo mice; assay type: in vivo, mouse; conditions: for RI compared with mice treated with Aβ(1-42) monomer or vehicle: P<0.01, ANOVA, post-hoc Holm-Sidak t-test; for Short term memory for objects: active immunization
# Source text: APP [V717I] C57BI×FVB female mice (n=36; 6 weeks old) were used for this study (Moechars et al., 1999). All mice were housed and bred in the animal housing facilities of the Catholic University Leuven, Campus Gasthuisberg, in accordance with the Belgian ethical law on housing, breeding and handling laboratory animals.
# They were genotyped by polymerase chain reaction (PCR) at the age of 3 weeks and were double checked by a second PCR at the onset of the study. All mice were blind randomised, age-matched and allocated randomly to a treatment. Animals were re-caged by treatment group one day before the onset of the study in order to allow them to familiarize to the new cage context. […] The food was stored under dry and cool conditions in a well-ventilated storage room. The amount of water and food was checked daily, supplied when necessary and standard refreshed twice a week. Mice were housed under a reversed day-night rhythm: 14 hours light/10 hours darkness, light starting at 7 p.m., in standard metal cages type RVS T2 (area of 540 cm^2) equipped with solid floors and layer of bedding litter.
# The first injection contained 50% (v/v) complete Freund's Adjuvants (Difco Laboratories, Detroit, Mich., USA, ref no 263810) while the boost injections contained 50% (v/v) incomplete Freund's Adjuvant (Difco Laboratories, Detroit, Mich., USA, ref no 263910). Administration of compounds was performed every 3 weeks during 3 months (at week 0/3/6/9/12). • Novel object recognition task in immunized mice:
# After the last injection all mice underwent a novel objection recognition task. The protocol used followed the method as described by Dewachter I. et al., Journal of Neuroscience, 2002, 22(9):3445-3453. Mice were familiarized for one hour to a Plexiglas open-field box (52×52×40 cm) with black vertical walls and a translucent floor, dimly illuminated by a lamp placed underneath the box. The next day the animals were placed in the same box and submitted to a 10 minutes acquisition trial. During this trial mice were placed individually in the open field in the presence of object A (blue ball or red cube, similar sized of ±4 cm), and the duration (timeAA) and the frequency (FreqAA) exploring object A (when the animals snout was directed towards the object at a distance of <1 cm and the mice were actively sniffing in the direction of the object) was recorded by a computerized system (Ethovision, Noldus information Technology, Wageningen, the Netherlands). During a 10 minutes retention trial (second trial) performed 3 hours later, a novel object (object B, red cube or blue ball) was placed together with the familiar object (object A) into the open field. (FreqA and FreqB and TimeA and TimeB, respectively).
# The recognition index (RI), defined as the ratio of the duration in which the novel object was explored over the duration in which both objects were explored [TimeB/(TimeA+TimeB)×100], was used to measure non-spatial memory. The duration and frequency object A was explored during the acquisition trial (TimeAA and FreqAA) was used to measure curiosity.
# neuronal cell-lines = assay: Binding of Aβ(1-42) globulomer to neuronal cell-lines; assay type: cell-based; conditions: data not shown
# T1 sequence (P05067 672-713 limits assumed): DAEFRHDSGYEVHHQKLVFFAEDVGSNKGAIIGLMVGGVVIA
compound,measurement,setting,value
CC/C=C\C/C=C\C/C=C\C/C=C\C/C=C\C/C=C\CCC(=O)O [docosahexanoic acid],Induction of the characteristic 38/48 kDa Aβ(1-42) globulomer,[1],could not generate
"Aβ(1-42) globulomer: soluble, globular, non-covalent association of about 12 Aβ(1-42) peptides generated from synthetic peptide with SDS",Binding to hippocampal neurons,"hippocampal neurons; 200 nM based on monomer (17 nM globulomer), 15 min, 37° C.",strong binding
same,Hippocampal neurons binding globulomer,hippocampal neurons; DIV8,−1%
same,Stable in PBS,"[2]; PBS, ambient temperature and 37° C.",at least 4 days
same,Globulomer structure maintained without disassembly or further polymerization to fibrils,"[2]; in vitro, physiological temperature (37° C.)",up to 4 days
same,Time after tetanization at which potentiation was significantly impaired (as early as),"long-term potentiation; 42 nM, p<0.05",5 min
same,High frequency stimulation-induced LTP,"long-term potentiation; 42 nM, rat brain slices",completely blocks; also recorded: complete block
same,Basic synaptic functioning (input/output relation),long-term potentiation; treated versus untreated slices,not impaired
same,Binding to cells of the ventricle walls,[3]; injection into ventricle,rapid and persistent binding
same,Cell toxicity along the ventricle wall (cell density),[3]; injection into ventricle,without obvious cell toxicity
same,Diffusion from ependyme into underlying brain tissue,[3]; injection into ventricle,without detectable diffusion
same,Presence in cerebrospinal fluid after injection,"[3]; injection into ventricle, data not shown",completely disappeared
same,Tissue penetration,[3]; intracerebral injection,Poor tissue penetration
same,Binding to glia,glia,did not bind
same,RI compared with mice treated with Aβ(1-42) monomer or vehicle,APP/Lo mice,significantly higher
same,Short term memory for objects,APP/Lo mice,selectively improved
same,Binding to neuronal cell-lines,neuronal cell-lines,negative
CC/C=C\C/C=C\C/C=C\C/C=C\C/C=C\CCCC(=O)O [eicosapentanoic acid],Induction of the characteristic 38/48 kDa Aβ(1-42) globulomer,[1],created a partly shifted oligomer
Aβ(20-42) globulomer: truncated globulomer from Aβ(20-42) peptide or thermolysin proteolysis of Aβ(1-42) globulomer (FAEDVGSNKGAIIGLMVGGVVIA; also: globulomer (oligomeric assembly)),RI compared with mice treated with Aβ(1-42) monomer or vehicle,APP/Lo mice,significantly higher
same,Short term memory for objects,APP/Lo mice,selectively improved
same,Recognition index (RI),"APP/Lo mice; second encounter, 3 hours after acquisition, P<0.01 vs chance level",more than 50%
docosatetranoic acid,Induction of the characteristic 38/48 kDa Aβ(1-42) globulomer,[1],could not generate
CCCCC/C=C\C/C=C\C/C=C\C/C=C\CCCC(=O)O [arachidonic acid],Induction of the characteristic 38/48 kDa Aβ(1-42) globulomer,[1],induced
CCCCC/C=C\C/C=C\CCCCCCCC(=O)O [linoleic acid],Induction of the characteristic 38/48 kDa Aβ(1-42) globulomer,[1],could not generate
CCCCCCCC/C=C\CCCCCCCC(=O)O [oleic acid],Induction of the characteristic 38/48 kDa Aβ(1-42) globulomer,[1],induced
CCCCCCCCCCCC(=O)O [lauric acid],Induction of the characteristic 38/48 kDa Aβ(1-42) globulomer,[1],induced
